Source: patent publication US6120997A, “Nucleic acid binders having an hydroxyamine motif” (The Scripps Research Institute, priority 1998, dated 2000)
pKd: −log10 of the molar value. Entries after “also recorded” stand apart in the source; their conditions may differ. Where two headings read alike, the source gives them in different places.

Key:
[1] = target: RBE3; assay: SPR binding of aminoglycosides to RBE3; set-up: species or system HIV-1; conditions: 25 C; for pKd: pH 7.0, 10 mM HEPES, 150 mM NaCl, 0.1 mM EDTA, Scatchard slope; for Scatchard plot x-axis intercept (RBE3): pH 7.0, 150 mM NaCl
Experimental: (§1) FIGS. 9A and 9B illustrate neomycin B binding to RBE3, RBE3-neg and wt-RRE-II. (A) Semilogarithmic plot. […] Conditions: pH 7.0, 10 mM HEPES, 150 mM NaCl, 0.1 mM EDTA, […].
(§2) FIGS. 10A and 10B illustrate paromomycin binding to RBE3, RBE3-neg and wt-RRE-II. (A) Semilogarithmic plot; the dashed line indicates the binding of neomycin B to wt-RRE-II for comparison (B) Scatchard plot. […] Conditions: pH 7.0, 10 mM HEPES, 150 mM NaCl, 0.1 mM EDTA, […].
(§3) Binding of the aminoglycoside to all three RNA oligonucleotides is observed starting in the low nanomolar concentration range and is non-saturable over the concentration range investigated. […] The high degree of non-specific binding is not surprising considering that aminoglycosides are highly charged polycations that tend to associate nonspecifically with the polyanionic phosphate backbone of RNA. […] Data points corresponding to 0.5 or more equivalents of neomycin B represent equilibrium values and can be analyzed with respect to stoichiometry and affinity of aminoglycoside binding. […] Both sequences bind one molecule of neomycin B with submicromolar affinity followed by weaker association with several additional equivalents of the antibiotic.
(§4) Samples were prepared by serial dilutions from stock solutions in RNase free microfuge tubes (Ambion) and were centrifuged at 14000 rpm for degassing. Buffers were filtered through sterile 0.2 &m nylon membranes (Nalgene) under vacuum, except for BIA certified HBS buffer (Pharmacia Biosensor AB) which was used as obtained. All procedures for binding studies were automated as methods using repetitive cycles of sample injection and regeneration. Typically, buffer was injected in the first two cycles to establish a stable baseline value. Samples were injected at a flowrate of 5-10 &L/min using either the KINJECT or the COINJECT command. All aminoglycoside and Rev27 samples were injected from autoclaved 7 mm plastic vials that were capped with pierceable plastic crimp caps. To minimize carry over, samples were injected in order of increasing concentration. The running buffer was identical to the injection buffer, except for the salt dependence study where a single running buffer was used for all injections. Expected values for the equilibrium response of one equivalent of analyte were calculated from the relative molecular weight of the analyte and the immobilized RNA ligand in each flowcells. These values were adjusted by multiplying with a factor of 0.8 or 0.57 for Rev27 or aminoglycosides respectively. These factors arise from the different molar refractive indices of RNA and the analyte and were determined from the Scatchard plot x-axis intercepts of the 1:1 binding isotherms for Rev27 and neomycin B.
Binding Studies with Aminoglycosides. […]

[2] = tested on: wt-RRE-II; assay: SPR binding of aminoglycosides to wt-RRE-II; set-up: species or system HIV-1; conditions: for dissociation from wt-RRE-II after 1 min (in words): aminoglycoside-free buffer, pH 7.4, 150 mM NaCl
Experimental: as §1, §2
FIG. 11 illustrates the kinetic stability of wt-RRE-II complexes with neomycin B vs. paromomycin. […] Data points were taken after 1 min of dissociation.
as §3, §4
Binding Studies with Aminoglycosides.
Neomycin B sulfate (Fluka) was converted to the free base by passing it through Amberlite IRA 400 (OH-- form) and purified by ion exchange chromatography on Dowex 1-X2 100 to remove neomycin C; the purity of neomycin B was verified by NMR in D2 O. Paromomycin sulfate was obtained from Sigma and used as received. Samples were prepared by dilution from 10 mM stock solutions in injection buffer (10 mM HEPES, pH 7.4, 150 mM NaCl, 3.4 mM EDTA). Data points were taken after an association phase of 30 min. A 2 min regeneration pulse of 150 mM Na2 SO4 in injection buffer was used between injections. […]

[3] = tested on: AS-wt; assay: SPR binding of aminoglycosides to decoding region A-site model AS-wt; set-up: species or system E. coli; conditions: for RNA binding, affinity or specificity for AS-wt (in words): Example 4; for specificity for AS-wt over negative controls (in words): Example 5, HBS-buffer
Outline: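 Compounds were injected over biotinylated RNA immobilized on streptavidin SPR chips in HBS (150 mM NaCl, 10 mM HEPES pH 7.4, 3.4 mM EDTA) […]. KD was obtained by non-linear fitting of equilibrium binding isotherms; the KD(AS-U1495A)/KD(AS-wt) ratio defines specificity.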

[4] = tested on: AS-U1495A; assay: SPR binding of aminoglycosides to AS-U1495A; conditions: HBS-buffer
Experimental: The RNA binding properties of 100-800 were analyzed using a surface plasmon resonance based assay that was recently developed in these laboratories. This assay allows the determination of both affinity and specificity of small molecule-RNA interactions. For the analysis, the compounds were injected over a matrix containing RNA that was immobilized through a biotin tag and the equilibrium binding values were recorded at various concentrations.
Non-linear curve fitting was then used to determine the values of the dissociation constants (KD). The specificity of binding, i.e. the ability to discriminate between different RNA sequences was evaluated by comparing the binding to the target sequence (AS-wt) and the negative control (AS-U1495A). […]
For the quantitative measurement of aminoglycoside binding to these sequences, we utilized our recently developed SPR-based assay. […]
In the same manner as illustrated for paromomycin, a panel of aminoglycosides was screened and the results are compiled in the table of FIGS. 46 and 47. […] All data were recorded under near physiological salt conditions (HBS-buffer: 150 mM NaCl, 10 mM HEPES, pH7.4, 3.4 mM EDTA) unless noted otherwise. […]
Plasmon resonance and antimicrobial testing for Example 4. Synthesis of the biotinylated RNA and surface plasmon resonance detected binding experiments were performed as described vida supra. […]

SMILES | pKd ([1]; read-out: Kd (RBE3), neomycin B) | Scatchard plot x-axis intercept (RBE3) [1] | number of molecules/sites bound with submicromolar affinity (wt-RRE-II) ([2]; SPR) | dissociation from wt-RRE-II after 1 min (in words) [2] | relative binding affinity for wt-RRE-II (in words) ([2]; comparison of aminoglycosides) | RNA binding, affinity or specificity for AS-wt (in words) [3] | specificity for AS-wt over negative controls (in words) [3] | pKd ([1]; read-out: Kd (RBE3), paromomycin) | temperature dependence of binding to AS-wt (in words) ([3]; Neo16bd, AS-wt and RBE3) | weaker binding to AS-U1495A than to AS-wt [4] [fold]
NC[C@@H]1O[C@H](O[C@H]2[C@@H](O)[C@H](O[C@@H]3[C@@H](O)[C@H](N)C[C@H](N)[C@H]3O[C@H]3O[C@H](CN)[C@@H](O)[C@H](O)[C@H]3N)O[C@@H]2CO)[C@H](N)[C@@H](O)[C@@H]1O [Neomycin B] | 6.68 | 1.01 | three different sites, each with a submicromolar dissociation constant; also recorded: three molecules of neomycin B are bound with submicromolar affinity; also recorded: up to three molecules | apparent 1:1 binding isotherm | highest affinity | tightest binder; also recorded: further improvement of the overall affinity, without affecting specificity | specific for AS-wt over the negative control RNAs |  |  | 
NC[C@@H]1O[C@H](O[C@H]2[C@@H](O)[C@H](O[C@@H]3[C@@H](O)[C@H](N)C[C@H](N)[C@H]3O[C@H]3O[C@H](CO)[C@@H](O)[C@H](O)[C@H]3N)O[C@@H]2CO)[C@H](N)[C@@H](O)[C@@H]1O [Paromomycin] |  | 1.04 |  | No apparent 1:1 binding isotherm is discernible |  | somewhat higher affinity but lower specificity | specific for AS-wt over the negative control RNAs | 5.55 | tighter at lower temperature | 20
